The source made the active and inactive calls. No cut-off for these calls is given here.
What was measured:
[1] = Neurotoxicity in ip dosed albino CF1 mouse assessed as median neurological impairing dose after 30 mins; type: toxicity, organism-based; conditions: in vivo
Mus musculus [2] = assay: Anticonvulsant activity in ip dosed albino CF1 mouse assessed as protection against maximal electroshock-induced seizure after 30 mins; type: functional; conditions: 0.5 h
Rattus norvegicus [3] = assay: Anticonvulsant activity in po dosed albino Sprague-Dawley rat assessed as protection against maximal electroshock seizure; type: functional
Mus musculus [4] = assay: Neurotoxicity in ip dosed albino CF1 mouse assessed as time of peak effect for median neurological impairing; type: toxicity, organism-based; conditions: in vivo
Rattus norvegicus [5] = assay: Toxicity in po dosed albino Sprague-Dawley rat assessed as time of peak effect for behavioural toxicity; type: organism-based; conditions: in vivo
Mus musculus [6] = assay: Anticonvulsant activity in ip dosed albino CF1 mouse assessed as protection against subcutaneous pentylenetetrazol-induced seizure; type: functional, organism-based
Rattus norvegicus [7] = assay: Anticonvulsant activity in po dosed albino Sprague-Dawley rat assessed as time of peak effect for protection against maximal electroshock seizure; type: functional
[8] = Toxicity in po dosed albino Sprague-Dawley rat assessed as behavioural toxicity; type: organism-based; conditions: in vivo
Mus musculus [9] = assay: Anticonvulsant activity in ip dosed albino CF1 mouse assessed as time of peak effect for protection against maximal electroshock-induced seizure; type: functional
Mus musculus [10] = assay: Protective index, ratio of TD50 for ip dosed NMRI mouse to ED50 for ip dosed NMRI mouse by maximal electroshock test; type: functional
[11] = Neurotoxicity in ip dosed NMRI mouse assessed as median neurological impairing dose after 30 mins by rotarod test; type: toxicity, organism-based; conditions: in vivo
Mus musculus [12] = assay: Analgesic activity in ip dosed NMRI mouse assessed as reduction in formalin-induced neuropathic pain after 30 mins; type: functional; conditions: 0.5 h
Mus musculus [13] = assay: Anticonvulsant activity in ip dosed NMRI mouse assessed as protection against maximal electroshock seizure after 30 mins; type: functional; conditions: 0.5 h
Mus musculus [14] = assay: Anticonvulsant activity in ip dosed 6 Hz psychomotor seizure model of NMRI mouse assessed as protection against seizure after 30 minutes; type: functional; conditions: 0.5 h
Mus musculus [15] = assay: Protective index, ratio of TD50 for ip dosed albino CF1 mouse to ED50 for ip dosed albino CF1 mouse by maximal electroshock test; type: functional
Rattus norvegicus [16] = assay: Protective index, ratio of TD50 for po dosed albino Sprague-Dawley rat to ED50 for po dosed albino Sprague-Dawley rat by maximal electroshock test; type: functional
Mus musculus [17] = assay: Anticonvulsant activity in ip dosed albino CF1 mouse assessed as protection against 6 Hz psychomotor seizure after 30 mins; type: functional; conditions: 0.5 h
Mus musculus [18] = assay: Anticonvulsant activity in ip dosed albino CF1 mouse assessed as time of peak effect for protection against 6 Hz psychomotor seizure; type: functional
Mus musculus [19] = assay: Analgesic activity in ip dosed albino CF1 mouse assessed as reduction of formalin-induced neuropathic pain after 30 mins; type: functional; conditions: 0.5 h

Compound: C[C@H](N)C(=O)NCc1ccccc1
- TD50 at 0.5 h [1]: > 300 mg/kg
- ED50 (Mus musculus [2]): > 300 mg/kg

Compound: CC(C)(C)[C@@H](N)C(=O)NCc1ccc(OCc2cccc(F)c2)cc1
- ED50 (Rattus norvegicus [3]): > 30 mg/kg
- Time (Mus musculus [4]): 0.5 h
- Time (Rattus norvegicus [5]): 0.25 h
- Activity (Mus musculus [6]): inactive
- TD50 at 0.5 h [1]: 300 mg/kg
- Time (Rattus norvegicus [7]): 0.25 h
- TD50 [8]: > 30 mg/kg
- ED50 (Mus musculus [2]): 30 mg/kg
- Time (Mus musculus [9]): 0.5 h

Compound: CC(C)(C)[C@H](N)C(=O)NCc1ccccc1
- Time (Mus musculus [4]): 0.25 h
- Activity (Mus musculus [6]): inactive
- TD50 at 0.5 h [1]: 105 mg/kg
- Ratio TD50/ED50 (Mus musculus [10]): 2.5
- ED50 (Mus musculus [2]): 42 mg/kg
- Time (Mus musculus [9]): 0.25 h

Compound: CCCC(CCC)C(=O)[O-].[Na+] [VALPROATE SODIUM]
- Time (Mus musculus [4]): 0.25 h
- Time (Rattus norvegicus [5]): 0.5 h
- Time (Rattus norvegicus [7]): 0.5 h
- ED50 (Mus musculus [2]): 270 mg/kg
- Time (Mus musculus [9]): 0.5 h

Compound: COC[C@@H](N)C(=O)NCc1ccc(C(F)(F)F)cc1.Cl
- TD50 at 0.5 h [11]: 48 mg/kg
- ED50 (Mus musculus [12]): > 31 mg/kg
- Activity (Mus musculus [6]): inactive
- ED50 (Mus musculus [13]): 19 mg/kg
- Ratio TD50/ED50 (Mus musculus [10]): 2.5
- ED50 (Mus musculus [14]): 55 mg/kg

Compound: CC(C)(C)[C@@H](N)C(=O)NCc1ccc(OC(F)(F)F)cc1
- ED50 (Rattus norvegicus [3]): 23 mg/kg
- Time (Mus musculus [4]): 0.25 h
- Time (Rattus norvegicus [5]): 0.25 h
- Ratio TD50/ED50 (Mus musculus [15]): 2.6
- Activity (Mus musculus [6]): inactive
- TD50 at 0.5 h [1]: 73 mg/kg
- Time (Rattus norvegicus [7]): 2 h
- TD50 [8]: > 30 mg/kg
- ED50 (Mus musculus [2]): 28 mg/kg
- Time (Mus musculus [9]): 1 h

Compound: CC(C)(C)[C@@H](N)C(=O)NCc1ccccc1
- ED50 (Rattus norvegicus [3]): 11 mg/kg
- Time (Mus musculus [4]): 0.25 h
- Ratio TD50/ED50 (Rattus norvegicus [16]): >45
- ED50 (Mus musculus [17]): 30 mg/kg
- Time (Mus musculus [18]): 0.25 h
- Ratio TD50/ED50 (Mus musculus [15]): 4.7
- ED50 (Mus musculus [12]): > 22 mg/kg
- Activity (Mus musculus [6]): inactive
- ED50 (Mus musculus [13]): 13 mg/kg
- TD50 at 0.5 h [1]: 66 mg/kg
- Time (Rattus norvegicus [7]): 0.25 h
- TD50 [8]: > 500 mg/kg
- Ratio TD50/ED50 (Mus musculus [10]): 4.7
- ED50 (Mus musculus [2]): 14 mg/kg
- ED50 (Mus musculus [14]): > 71 mg/kg
- Time (Mus musculus [9]): 0.25 h

Compound: COC[C@@H](N)C(=O)NCc1ccc(OC(F)(F)F)cc1.Cl
- TD50 at 0.5 h [11]: 30 mg/kg
- Activity (Mus musculus [6]): inactive
- ED50 (Mus musculus [13]): 10 mg/kg

Compound: CCC1(c2ccccc2)C(=O)NC(=O)NC1=O [PHENOBARBITAL]
- Time (Mus musculus [4]): 0.5 h
- Time (Rattus norvegicus [5]): 0.5 h
- Ratio TD50/ED50 (Mus musculus [15]): 3
- TD50 at 0.5 h [1]: 66 mg/kg
- Time (Rattus norvegicus [7]): 5 h
- Time (Mus musculus [9]): 1 h

Compound: O=C1NC(=O)C(c2ccccc2)(c2ccccc2)N1 [PHENYTOIN]
- Time (Mus musculus [4]): 0.25 h
- TD50 at 0.5 h [1]: 27 mg/kg
- Time (Rattus norvegicus [7]): 4 h
- TD50 [8]: > 3000 mg/kg
- Time (Mus musculus [9]): 2 h

Compound: C[C@@H](N)C(=O)NCc1ccc(OCc2cccc(F)c2)cc1
- ED50 (Mus musculus [12]): > 37 mg/kg
- Activity (Mus musculus [6]): inactive
- ED50 (Mus musculus [13]): 17 mg/kg
- ED50 (Mus musculus [14]): > 120 mg/kg

Compound: COC[C@@H](N)C(=O)NCc1ccc(OCc2cccc(F)c2)cc1
- ED50 (Rattus norvegicus [3]): 13 mg/kg
- Time (Mus musculus [4]): 0.25 h
- Ratio TD50/ED50 (Rattus norvegicus [16]): >38
- ED50 (Mus musculus [17]): < 50 mg/kg
- Time (Mus musculus [18]): 0.5 h
- Ratio TD50/ED50 (Mus musculus [15]): 3.9
- Activity (Mus musculus [6]): inactive
- TD50 at 0.5 h [1]: 58 mg/kg
- Time (Rattus norvegicus [7]): 0.5 h
- TD50 [8]: > 500 mg/kg
- ED50 (Mus musculus [2]): 15 mg/kg
- Time (Mus musculus [9]): 0.5 h

Compound: C[C@@H](N)C(=O)NCc1ccccc1
- ED50 (Mus musculus [19]): 69 mg/kg
- TD50 at 0.5 h [1]: 100 mg/kg
- ED50 (Mus musculus [2]): 10 mg/kg
